The target of test [1] is T1, rat lens aldose reductase (RLAR) (Rattus norvegicus, UniProt P07943).
T1 construct: from tissue; host or cells: rat lens (Sprague-Dawley) homogenate, partially purified
In words: Rat lens aldose reductase (RLAR) inhibitory assay, DL-glyceraldehyde as substrate. It is filed as biochemical. The following applies: for inhibition at 1 µg/mL: concentration 1 μg/mL; for inhibition at 5 µg/mL: concentration 5 μg/mL; for inhibition at 10 µg/mL: read-out: Inhibition (%) of RLAR; for IC50: least-squares regression of log concentration vs inhibitory activity; for inhibition at 40 µg/mL: concentration 40 μg/mL. The method, then:
RLAR activity was assayed according to the methods described by Dufrane et al.. […] The rat lens homogenate was prepared according to the method of Hayman and Kinoshita with some modifications. […] The partially purified material was separated into 1.0 mL aliquots and stored at −40°C. […] Each 1.0 mL cuvette contained equal units of enzyme, 0.05 M sodium phosphate buffer (pH 6.2), and 0.3 mM NADPH with or without 10 mM substrate and inhibitor. For inhibition studies, concentrated stocks of AR inhibitors prepared in DMSO were used, and the final concentration of DMSO was not more than 1%.

Test [2] relates to galactitol accumulation in rat erythrocytes. As to the kind of experiment: Blood culture and intracellular galactitol measurement. It is filed as cell-based. The conditions noted are these: 30 mM galactose, 50 μg/mL compound, 3 h; for inhibition at 50 µg/mL: Rattus norvegicus, Erythrocyte. The protocol:
Blood sample was collected in heparin-containing polypropylene tube from 10-week-old male rats. For sugar and sugar alcohol analysis, erythrocytes from heparinized blood were separated from the plasma and buffy coat by centrifuging at 2000 ×g for 10 min. The cells were washed thrice with normal saline (0.9% NaCl) at 4°C. In the final washing, the cells were centrifuged at 2000 ×g for 10 min to obtain a consistently packed cell preparation. The packed cells (1 mL) were then incubated in a Krebs-Ringer bicarbonate buffer (pH 7.4) containing 30 mM galactose in the presence or absence of samples at 37°C in 5% CO2 for 3 h. The erythrocytes were washed with cold saline by centrifuging at 2000 ×g for 10 min, precipitated by adding 6% of cold perchloric acid (3 mL), and centrifuged again at 2000 ×g for 10 min. The supernatant was neutralized with 2.5 M K2CO3 at 4°C and used for galactitol determination. HPLC analysis for sugar and sugar alcohol in blood was performed with this supernatant of red blood cell homogenate after being benzoylated.

The subject of test [3] is galactitol accumulation in rat lens. As to the kind of experiment: Lens culture and intracellular galactitol measurement. The test is classed as cell-based. The following applies: 30 mM galactose, compound 5 μg/mL; for Galactitol content μg/lens wet weight (g): mean ± SD of triplicate; for inhibition at 5 µg/mL: Rattus norvegicus. The method, then: Lenses isolated from 10-week-old male rats were cultured for 6 d in TC-199 medium that contained 15% fetal bovine serum 100 U/mL penicillin and 0.1 mg/mL streptomycin under sterile conditions in an atmosphere of 5% CO2 and 95% air at 37°C. Samples were dissolved in DMSO. […] Each lens was placed in well containing 1.0 mL of medium. Lenses from each group were minced in 150 μL of phosphate-buffered saline on ice, homogenized by sonication, and centrifuged at 22.000 g for 10 min at 4°C. The supernatant was filtered through a membrane filter (Ultrafree-MC, nominal molecular weight limit 10,000; Millipore, Bedford, MA, USA) to remove proteins. HPLC analysis for sugar alcohol in lens was performed with this filtrate after being benzoylated.

Test [4] concerns the target T2, recombinant human aldose reductase (rhAR) (Homo sapiens, UniProt P15121).
T2 construct: purchased Wako Pure Chemical Industries (Osaka, Japan)
In words: Kinetics of rhAR by active compounds (Lineweaver-Burk plots). The test is classed as biochemical. The conditions noted are these: DL-glyceraldehyde 0.1-1.0 mM. The protocol: Reaction mixtures consisted of 0.1 M potassium phosphate, 0.16 mM NADPH, and […] of rhAR with varied concentrations of substrate DL-glyceraldehyde and AR inhibitor in a total volume of 200 μL. Concentrations were ranged from 0.1 to 1.0 mM for DL-glyceraldehyde. rhAR activity was assayed spectrophotometrically by measuring the decrease in absorption of NADPH at 340 nm after substrate addition using Biotek Power Wave XS spectrophotometer (Biotek instruments, VT, USA). K m and V max of rhAR were determined with varying concentrations of DL-glyceraldehyde as a substrate in the absence and presence of different concentrations of inhibitor by Lineweaver-Burk double reciprocal plots. Inhibitory constant (K i) was derived by plotting slopes obtained from Lineweaver-Burk plots versus inhibitors concentration.

Setting [5] is: concentration 10 μg/mL, mean of triplicate.
Where [6] appears, read: read-out: IC50 (μg/mL) RLAR (converted).

Consider 13 compounds from PMC3613087, “Aldose Reductase Inhibitory Activity of Compounds from Zea mays L” (BioMed Research International, 2013).

Molecules are shown by their SMILES. Read-outs that look alike come from different tables or passages of the source.

In general, inhibition refers to the share of the control response that was lost under treatment. Compound `O=C(O)c1c(O)cc(O)cc1O` [2,4,6-trihydroxybenzoic acid (3), 2,4,6-trihydroxybenzoic acid] displayed an inhibition at 1 µg/mL in test [1] (mean of triplicate) of 16.9%. In addition, in test [1] (mean of triplicate), the inhibition at 5 µg/mL was 48.1%. The inhibition at 10 µg/mL in test [1] (setting [5]) was determined as 73.7%. Besides, the IC50 in test [1] (read-out: IC50 (μM) RLAR) and in test [1] (setting [6]) was 34.8 µM each time.

In the case of `COc1cc(-c2oc3cc(O)cc(O)c3c(=O)c2O[C@@H]2O[C@H](CO)[C@@H](O)[C@H](O)[C@H]2O)ccc1O` [3′-methoxyhirsutrin (7), 3′-methoxyhirsutrin], in test [1] (mean of triplicate), at 1 µg/mL the inhibition was 16.4% and the inhibition at 5 µg/mL stood at 73.7%. Moreover, the inhibition at 10 µg/mL in test [1] (setting [5]) stood at 89.7%. Besides, the IC50 in test [1] (read-out: IC50 (μM) RLAR) was 5.67 µM. Besides, the IC50 in test [1] (setting [6]) was 5.66 µM. In test [2], the “Galactitol content (μM) in rat erythrocyte” value (“Galactitol content (μM)” for short) came out at 20.19 µM and the inhibition at 50 µg/mL is about 12%. In test [3], the “Galactitol content μg/lens wet weight (g)” value was 828.35 ± 73.27 μg/lens wet weight (g) and the inhibition at 5 µg/mL is 1.86%. Besides, the “Inhibition type of rhAR” value in test [4] was “uncompetitive”.

In test [1] (mean of triplicate), `O=C(O)CC(=O)OC[C@H]1O[C@@H](Oc2cc3c(O)cc(O)cc3[o+]c2-c2ccc(O)c(O)c2)[C@H](O)[C@@H](O)[C@@H]1O` [Cyanidin-3-(6′′-malonylglucoside) (11), cyanidin 3-(6′′-malonylglucoside)] registered an inhibition at 1 µg/mL of 19% and an inhibition at 5 µg/mL of 47.8%. The inhibition at 10 µg/mL in test [1] (setting [5]) was determined as 68%. Moreover, in test [1] (read-out: IC50 (μM) RLAR), the IC50 came out at 11.7 µM. In test [1] (setting [6]), the IC50 is 11.7 µM.

With `OC[C@H]1O[C@@H](Oc2cc3c(O)cc(O)cc3[o+]c2-c2ccc(O)c(O)c2)[C@H](O)[C@@H](O)[C@@H]1O` [Cyanidin-3-glucoside (8), cyanidin-3-glucoside], the “RLAR inhibitory activity (in words)” value in test [1] is given as “did not RLAR inhibitory activity”. Also, the inhibition at 40 µg/mL in test [1] (mean of triplicate) was determined as 47.7%. Also, the IC50 in test [1] (setting [6]) was over 89 µM.

In test [1] (mean of triplicate), `COc1cc(/C=C/C(=O)O)ccc1O` [Ferulic acid (5), ferulic acid] registered an inhibition at 1 µg/mL of 11.2% and an inhibition at 5 µg/mL of 49.8%. Besides, the inhibition at 10 µg/mL in test [1] (setting [5]) is 77.2%. Also, the IC50 in test [1] (read-out: IC50 (μM) RLAR) turned out to be 21.9 µM. In addition, in test [1] (setting [6]), the IC50 was 21.8 µM.

In test [1] (mean of triplicate), `O=c1c(O[C@@H]2O[C@H](CO)[C@@H](O)[C@H](O)[C@H]2O)c(-c2ccc(O)c(O)c2)oc2cc(O)cc(O)c12` [Hirsutrin (6), hirsutrin] had an inhibition at 1 µg/mL of 27.6% and an inhibition at 5 µg/mL of 76.2%. For the same compound, the inhibition at 10 µg/mL in test [1] (setting [5]) was 86.7%. In test [1] (read-out: IC50 (μM) RLAR), the IC50 amounted to 4.78 µM. In addition, the IC50 in test [1] (setting [6]) is 4.78 µM. Moreover, in test [2], the “Galactitol content (μM)” value was 15.70 µM and the inhibition at 50 µg/mL is about 32.5%. In addition, in test [3], the “Galactitol content μg/lens wet weight (g)” value was 558.92 ± 89.12 μg/lens wet weight (g) and the inhibition at 5 µg/mL is about 33.8%. Further, the “Inhibition type of rhAR” value in test [4] is “competitive”.

With `OC[C@H]1O[C@@H](Oc2cc3c(O)cc(O)cc3[o+]c2-c2ccc(O)cc2)[C@H](O)[C@@H](O)[C@@H]1O` [Pelargonidin-3-glucoside (9), pelargonidin-3-glucoside], the “RLAR inhibitory activity (in words)” value in test [1] is listed as “did not RLAR inhibitory activity”. Also, in test [1] (mean of triplicate), at 40 µg/mL the inhibition was 13.2%. Further, the IC50 in test [1] (setting [6]) was over 92.3 µM.

For `COc1cc(-c2[o+]c3cc(O)cc(O)c3cc2O[C@@H]2O[C@H](CO)[C@@H](O)[C@H](O)[C@H]2O)ccc1O` [Peonidin-3-glucoside (10), peonidin-3-glucoside], the “RLAR inhibitory activity (in words)” value in test [1] is recorded as “did not RLAR inhibitory activity”. For the same compound, in test [1] (mean of triplicate), the inhibition at 40 µg/mL was 37%. In test [1] (setting [6]), the IC50 was over 86.3 µM.

In the case of `O=C(O)c1ccc(O)c(O)c1` [Protochatechuic acid (1), protocatechuic acid], the IC50 in test [1] (setting [6]) is over 64.9 µM. In addition, the inhibition at 10 µg/mL in test [1] came out at 3.22%.

On to `O=c1c(O)c(-c2ccc(O)c(O)c2)oc2cc(O)cc(O)c12` [Quercetin, quercetin, reference compound], for which, in test [1] (mean of triplicate), the inhibition at 1 µg/mL was found to be 30.3% and the inhibition at 5 µg/mL turned out to be 67.9%. Further, the inhibition at 10 µg/mL in test [1] (setting [5]) came out at 83%. Moreover, in test [2], the “Galactitol content (μM)” value is 16.15 µM and the inhibition at 50 µg/mL came out at 30.5%. Besides, in test [3], the “Galactitol content μg/lens wet weight (g)” value is listed as 448.81 ± 69.43 μg/lens wet weight (g) and the inhibition at 5 µg/mL was 46.8%.

Regarding `COc1cc(C(=O)O)ccc1O` [Vanillic acid (2), vanillic acid], in test [1] (setting [5]), the inhibition at 10 µg/mL is 20.3%. In addition, the IC50 in test [1] (setting [6]) is over 59.5 µM.

In test [1] (mean of triplicate), `O=C(O)C=Cc1ccc(O)cc1` [p-hydroxycinnamic acid (4), p-hydroxycinnamic acid] displayed an inhibition at 1 µg/mL of 13.8% and an inhibition at 5 µg/mL of 43.7%. For the same compound, the inhibition at 10 µg/mL in test [1] (setting [5]) was found to be 77.8%. For the same compound, the IC50 in test [1] (read-out: IC50 (μM) RLAR) amounted to 36.7 µM. Also, in test [1] (setting [6]), the IC50 was 36.7 µM.

With `O=C(O)CC(=O)OC[C@H]1O[C@@H](Oc2cc3c(O)cc(O)cc3[o+]c2-c2ccc(O)cc2)[C@H](O)[C@@H](O)[C@@H]1O` [pelargonidin 3-(6′′-malonylglucoside)], the “RLAR inhibitory activity (in words)” value in test [1] is “did not RLAR inhibitory activity”. Also, in test [1] (setting [6]), the IC50 is over 19.3 µM.
